{"source": "patent US20260102484A1", "about": "“ADJUVANTS FOR ENHANCING THE IMMUNE RESPONSE” (priority 2022, published 2026)", "key": {"[1]": {"tested_on": "cytokine response to RBD Peptide #9 (IL6, IFNg, TNF, IL17, IL 10)", "set-up": "species or system Mice", "settings": "mouse, in vivo"}, "[2]": {"tested_on": "antigen-specific (RBD peptide #9) Proliferative T cell response", "set-up": "species or system Mice", "settings": "mouse, in vivo"}, "splenic T cells": {"tested_on": "splenic T cells", "assay": "Recall response of splenic T cells to peptide #5-palmitic acid, CTFR proliferation dye and FACS", "format": "in vivo, Mice", "settings": "immunized subcutaneously with peptide #5-palmitic acid CFA + 10 ug; 14 days later; FIG. 7", "procedure": "Mice were now immunized with peptide 5 and T cells analyzed for proliferation and by FACS analysis. (FIG. 7) Mice were immunized subcutaneously with peptide #5-palmitic acid CFA mixture with and without 10 ug of 1,4-DPCA. 14 days later, splenic T cells were isolated and co-cultured with irradiated feeders in a ratio of 400k:100k to assess recall responses to peptide #5-palmitic acid. T cells from unimmunized mice were used as control. Only T cells were stained with CTFR proliferation dye in order to ensure detection of specific T cell responses.\nIn upper FIG. 7 is the FACS flow cytometry plot, where the labelled cells are T cells. […] Below this, is the analyzed proliferation data, where the yellow line is immunized+10 ug of DPCA was given to mice, the grey line is immunized only, the orange line is control, unimmunized but stimulated in culture, and the blue line is control, unstimulated in culture."}, "[3]": {"tested_on": "myeloid (GR1+CD11b+) cells and lymphoid (CD8+) cells", "assay": "FACS analysis of myeloid and lymphoid cells at higher DPCA doses", "format": "in vivo, mice", "procedure": "To explore what is happening at higher DPCA doses and why they may be inhibitory, we tested the effects of different concentrations of DPCA on myeloid (GR1+CD11b+) cells and lymphoid (CD8+) cells. […] Also, the number of GR1+CD11b+myeloid cells is much higher. Within this population of myeloid cells are cells that can suppress T cells.\nAdditionally, cells were immunized with 50 ug of DPCA and compared to an untreated control. The number of cell in each was determined by FACS analysis. […] (See upper panels showing scatter plots with an increased number of cells in treated cells). An analysis of myeloid cell markers GR1 and CD11b was determined in the control and DPCA treated cells. […] (See lower panels)"}, "[4]": {"tested_on": "Naïve, central memory, and effector T cells (CD4 and CD8)", "assay": "Numbers of naive, central memory and effector memory T cells from lymph nodes and spleen", "format": "in vivo", "settings": "peptide 9 and 10 ug or 25 ug of DPCA, FIG. 6", "procedure": "Next, three populations of T cells (Naïve, central memory, and effector T cells) from lymph nodes and spleens were treated with peptide 9 and 10 ug of DPCA or 25 ug of DPCA. An untreated control group and a control group treated with PBS were also tested."}}}
{"smiles": "O=C(O)c1c[nH]c2c(ccc3cccnc32)c1=O", "note": "[1,4-DPCA, 1,4-dihydrophenonthrolin-4-one-3-carboxylic acid]", "values": [{"measurement": "IFNg response", "setting": "[1]", "result": "most dramatically affected"}, {"measurement": "cytokine response (IL6, IFNg, TNF, IL17, and IL 10)", "setting": "[1]", "result": "dose-dependent"}, {"measurement": "antigen-specific (RBD peptide #9) Proliferative T cell response", "setting": "[2]", "result": "enhances"}, {"measurement": "T cell proliferation (FACS flow cytometry plot)", "setting": "splenic T cells", "result": "increased proliferation"}, {"measurement": "number of large cells (FACS scatter plots)", "setting": "[3]; 50 ug of DPCA vs untreated control, FIG. 5", "result": "increase number of large cells"}, {"measurement": "myeloid cell markers GR1 and CD11b", "setting": "[3]; DPCA treated vs untreated control, FIG. 5 lower panels", "result": "large population of myeloid cells"}, {"measurement": "relationship between lymphoid and myeloid cells", "setting": "[3]; higher DPCA dosage, FIG. 4", "result": "Inverse relationship"}, {"measurement": "number of CD8+T cells", "setting": "[3]; higher DPCA doses, FIG. 4", "result": "reduced"}, {"measurement": "number of GR1+CD11b+myeloid cells", "setting": "[3]; higher DPCA doses, FIG. 4", "result": "much higher"}, {"measurement": "numbers of memory cells (CD4 and CD8)", "setting": "[4]", "result": "increased numbers"}, {"measurement": "numbers of naïve cells (CD4 and CD8)", "setting": "[4]", "result": "lower numbers"}]}
